In patent US11578130B2, “Regulatable chimeric antigen receptor” (Novartis AG, priority 2013, dated 2023):

Legend:
[1] = molecular target: biotinylated FKBP, FLAG FRB protein and everolimus; assay: AlphaLISA direct binding assay, FLAG FRB proteins with biotinylated FKBP and titrated everolimus; details: everolimus serial diluted from 600 nM; 30 nM biotinylated FKBP and each FLAG FRB protein
Experimental: FRB mutations were also ranked in an alternative assay format. Briefly, FRB proteins incorporating single and double mutations (SEQ ID NO: 319-323) were produced as FLAG tagged constructs in E. coli as described previously. 30 nM (final) of biotinylated FKBP (SEQ ID NO: 324) and each FLAG FRB protein were combined in the presence of everolimus serial diluted 1:3 from a starting final concentration of 600 nM into a 96 well ½ surface flat-bottom plate (PerkinElmer) and incubated for one hour at room temperature. All dilutions were made in 1× AlphaLISA Immunoassay buffer (PerkinElmer). Anti-Flag acceptor beads (PerkinElmer) were added at 10ug/ml final concentration and incubated for one hour at room temperature. Streptavidin donor beads (PerkinElmer), were then added at a final concentration of 40ug/ml and the plate was protected from light and incubated for 30 minutes at room temperature. The plate was then read on the PerkinElmer EnVision Multiplate reader equipped with the Alpha Module using excitation of 680 nm and a 570 nm Emission filter.

[2] = test system: PI3K/mTOR; details: relatively higher concentrations; cited from earlier work
[3] = molecular target: mTOR (Homo sapiens, UniProt P42345); details: low concentration; cited from earlier work
[4] = test system: Jurkat cells with NFAT-LUC reporter (JNL); assay: Activation assay of redirected inhibitory RCAR (PD1 RCAR, FRB-FKBP switch) on PDL1-Fc; assay type: cell-based
Experimental: Jurkat cells with NFAT-LUC reporter (JNL) were grown to the density of 0.5×10^6/ml in Jurkat cell growth media with puromycin at 0.5 μg/ml. For each transfection 3×10^6 cells were spin down at 100 g for 10 minutes. Four μg DNA per construct were used per transfection. Amaxa Nucleofector solution V and supplement I was mixed and 100 μl was added into the tube with DNA construct. The mixture was then added to the cells and transferred to the electroporation cuvette. Electroporation was done under setting X-001 using Amaxa Nucleofector II Device. 0.5 ml of growth media was added immediately after electroporation and the mixture were transferred into 2 ml growth media in one well of the 6-well plate. After two hours, the rapalogue compound at various concentrations was added to cells. The cells were applied to tissue culture plate wells that were coated by the target. Tissue culture plate was coated with 5 μg/ml of PDL1-Fc or IgG1-Fc or any target for 2 hrs at 37° C., then blocked with the blocking buffer (DPBS with 5% serum) for 30 minutes. The transfected cells were added to the target plate with 100 μl per well and incubated further for 16 hrs. Luciferase One Glo reagent 100 μl was added per well. The samples were incubated for 5 min at 37° C. and then luminescence is measured using Envision plate reader. […]

[5] = test system: JNL cells; assay: Single vector CD19 RCAR constructs in JNL cells, NFAT reporter activation by dimerization molecule; assay type: cell-based; details: nM to sub-nM doses
From the text: The constructs and viral particles were made and tested essentially as described in Example 11. Viral particles were introduced into JNL cells and evaluated for activity essentially as described in Example 1 except that the target was CD19 (as opposed to EGFRviii).
Construct 143775 was introduced into cells and the affect of dimerization molecule concentration on activation evaluated essentially as described in Example 14.

[6] = test system: Jurkat cells with NFAT-LUC reporter (JNL); assay: NFAT activation assay, 9E10 anti-myc scFv RCAR with c-myc peptide multimers; assay type: cell-based; details: myc tags at 100 nM, 18 hr; compared with lower multimers
Experimental: Jurkat cells with NFAT-LUC reporter (JNL) were grown to the density of 0.5×10^6/ml in Jurkat cell growth media with puromycin at 0.5 μg/ml. For each transfection 2.5×10^6 cells were spin down at 100 g for 10 minutes. Two μg of DNA per construct were used per transfection. Amaxa Nucleofector solution V and supplement I was mixed and 100 μl was added into the tube with DNA construct. The mixture was then added to the cells and transferred to the electroporation cuvette. Electroporation was done under setting X-001 using Amaxa Nucleofector II Device. 0.5 ml of growth media was added immediately after electroporation and the mixture were transferred into 2 ml growth media in one well of the 6-well plate and incubated for two hours. For myc tags in solution, the cells were distributed into 96-wells, monomer, dimer, trimer or tetramer myc tags or IgG1 Fc were applied at 100 nM. The cells were incubated for 18 hr. Alternatively, tissue culture plate was coated with 100 nM of various myc tags or IgG1 Fc for two hours, blocked with the blocking buffer (DPBS with 5% serum) for 1 hour. The transfected cells were added to the target plate with 100 μl per well and incubated for 18 hrs. Luciferase One Glo reagent 100 μl was added per well. The samples were incubated for 5 min at 37° C. and then luminescence is measured using Envision plate reader.

T2098L: FRB point mutant; SEQ ID NO: 315 (competition assay), SEQ ID NO: 321 (direct binding assay)
EC50 [1]: 1.44 nM

Wild type FRB: His-FRB SEQ ID NO: 312 in competition assay; His-FLAG-FRB SEQ ID NO: 318 in direct binding assay
EC50 [1]: 3.9 nM

Cn1c(=O)n(-c2ccc(C(C)(C)C#N)cc2)c2c3cc(-c4cnc5ccccc5c4)ccc3ncc21 [BEZ235, 2-methyl-2-[4-(3-methyl-2-oxo-8-quinolin-3-yl-2,3-dihydro-imidazo[4,5-c]quinolin-1-yl)-phenyl]-propionitrile]
concentration of dual PI3K/mTOR inhibition [2]: approximately 500 nmol/L
concentration at which mTOR inhibition predominates [3]: less than 100 nmol/L

CO[C@H]1[C@@H](O)[C@H](C)C[C@H](C)/C=C/C=C/C=C(\C)[C@@H](c2c[nH]c3c(C)cccc23)C[C@@H]2CC[C@@H](C)[C@@](O)(O2)C(=O)C(=O)N2CCCC[C@H]2C(=O)O[C@H]([C@H](C)C[C@@H]2CC[C@@H](O)[C@H](OC)C2)C[C@H](O)[C@H](C)/C=C(\C)[C@H]1O [AP21967]
induction of NFAT signaling by PDL-1 target ([4]; PD1 RCAR (PD1-ECD-TM-FRB and FKBP-4 1BB-CD3 zeta), 500 nM AP21967): significant induction of signaling
potency in inducing dimerization of the heterodimerization switch, activation of NFAT signaling ([4]; PD1 RCAR, varying concentrations of AP21967, dose response): potent even at sub nM concentration

CO[C@H]1C[C@@H]2CC[C@@H](C)[C@@](O)(O2)C(=O)C(=O)N2CCCC[C@H]2C(=O)O[C@H]([C@H](C)C[C@@H]2CC[C@@H](O)[C@H](OC)C2)CC(=O)[C@H](C)/C=C(\C)[C@@H](O)[C@@H](OC)C(=O)[C@H](C)C[C@H](C)/C=C/C=C/C=C/1C [rapamycin]
activation of RCAR (Construct 143775) over dimerization molecule concentration [5]: effective at a broad range of concentrations

E2032I: FRB point mutant; SEQ ID NO: 313 (competition assay), SEQ ID NO: 319 (direct binding assay)
EC50 [1]: 2.46 nM

E2032L: FRB point mutant; SEQ ID NO: 314 (competition assay), SEQ ID NO: 320 (direct binding assay)
EC50 [1]: 2.15 nM

B1: EEQKLISEEDLGGGGSGGGGSGGGGSEEQKLISEEDLGGGGSGGGGSGGGGSEEQKLISEEDL (peptide)
chain: EEQKLISEEDLGGGGSGGGGSGGGGSEEQKLISEEDLGGGGSGGGGSGGGGSEEQKLISEEDL
NFAT activation by myc tag multimers [6]: Higher NFAT activation

B2: EEQKLISEEDLGGGGSGGGGSGGGGSEEQKLISEEDLGGGGSGGGGSGGGGSEEQKLISEEDLGGGGSGGGGSGGGGSEEQKLISEEDL (peptide)
chain: EEQKLISEEDLGGGGSGGGGSGGGGSEEQKLISEEDLGGGGSGGGGSGGGGSEEQKLISEEDLGGGGSGGGGSGGGGSEEQKLISEEDL
NFAT activation by myc tag multimers [6]: Higher NFAT activation
